Test results reported in patent US11555210B2, “Microbe having increased tolerance to phenolic fermentation inhibitors” (University of Ottawa, priority 2018, dated 2023).
Entries after “also recorded” stand apart in the source; their conditions may differ.

Key:
[1] = test system: Zwf1-GFP; assay: co-localization of Zwf1-GFP with mitochondrial and ER markers; format: cell-based, S. cerevisiae
Text: (§1) For co-localization studies, images were obtained as Z-stacks. Co-localization of the fluorescence signals were quantified using the IMARIS software 9.2.1 (Bitplane; http://www.bitplane.com) and a Manders' overlap co-efficient (Manders et al., 1993, Journal of Microscopy. 169, 375-382) was used to evaluate the fraction of RFP pixels (organelle marker) also positive for GFP pixels ([…]). The closer the value is to one, the higher the level of co-localization. The analysis was complemented by performing an object-based quantification where the percentage volume of ROS that localized to the mitochondria and endoplasmic reticulum was measured.
A strain expressing endogenously tagged Zwf1-GFP and either the mitochondrial marker CIT1-RFP or the ER marker SEC13-RFP were imaged as described in Example 5 both before and after 2 hours of treatment with 2 mM coniferyl aldehyde. […] Using the object-based analysis, the percentage volume of Zwf1 localizing to the mitochondria was measured as 47.10±8.04%. Likewise, co-localization of Zwf1-GFP to the ER marker Sec13-RFP was observed, though to a lesser extent, and confirmed by a quantitative analysis using a Mander's overlap co-efficient (0.22±0.07). (FIG. 11B).

[2] = test system: Zwf1-GFP; assay: Zwf1-GFP fluorescence microscopy; format: cell-based, S. cerevisiae
Method: For the microscopy studies, wild type cells expressing endogenously tagged Zwf1-GFP (YKB4825) were grown to mid log in YPD, prior to being washed and resuspended in YPD medium (Untreated) or YPD medium containing 2 mM coniferyl aldehyde (CA) for 120 min at 30° C. Images (FIG. 8A) are representative of three independent experiments where a minimum of 100 cells each were imaged. Scale bar represents 10 μm.

[3] = test system: zwf1Δ (YKB4794); assay: dot assay on YPD agar plates; format: cell-based, S. cerevisiae; conditions: 10 mM FA, 35 mM 4-HBA or 1 mM CA, 48 hr at 30° C., compared to wild type
Method: (§2) Wild type (BY4741) along with zwf1Δ (YKB4794), sol2Δ (YKB4847), sol3Δ (YKB4848), gnd1Δ (YKB4797), gnd2Δ (YKB4850), rpe1Δ (YKB4795), tal1Δ (YKB4851) and tkl1Δ (YKB4796) deletion strains were grown to mid log phase in YPD medium prior to being diluted into fresh medium to an OD600of 0.1. Four 10-fold serial dilutions were spotted onto YPD agar plates containing either 1 mM coniferyl aldehyde (1 mM CA) or no coniferyl aldehyde (0 mM CA). Plates were incubated for 48 hr at 30° C. and images are representative of three biological replicates.
Wild type (BY4741), bna7Δ (YKB4649) and zwf1Δ (YKB4794) were grown to mid log phase in YPD medium prior to being diluted into fresh medium to an OD600 of 0.1. Four 10-fold serial dilutions were spotted onto YPD agar plates containing either no compound (Untreated), 10 mM ferulic acid (FA), 35 mM 4-hydroxybenzoic acid (4-HBA) or 1 mM coniferyl aldehyde (CA). Plates were incubated for 48 hr at 30° C. and images are representative of three biological replicates.

[4] = test system: Sol2-GFP, Sol3-GFP and Rpe1-GFP; assay: fluorescence microscopy of GFP-tagged pentose phosphate pathway proteins; format: cell-based, S. cerevisiae; conditions: 2 mM coniferyl aldehyde
[5] = test system: Zwf1; assay: Zwf1 protein quantification by western blot; format: cell-based, S. cerevisiae; conditions: 2 mM coniferyl aldehyde, 2 hours at 30° C.; ρ=0.00176
Method: Protein quantification was carried out by western blots as follows. Overnight cultures of wild type cells were diluted in fresh YPD medium to a final OD600 of 0.1. These were grown at 30° C. until they reached the early log phase. Subsequently, coniferyl aldehyde was added to the cultures to a final concentration of 2 mM and the cultures were further incubated for 2 hours. Whole cell extracts (WCE) were obtained by centrifugation of the cells (3000 rpm for 3 min; 4° C.), washing of cell pellet with chilled sterile water and cell lysis using the Trichloroacetic acid (TCA) protocol (Kao and Osley, 2003, Methods. 31,59-66). Equal number of cells was used for the TCA lysis and equal volumes of WCE were used for the quantitative western blot analysis. […] Prior to the protein level quantification, the linear range of the target protein Zwf1 was determined by loading seven 2-fold dilutions of the WCE to obtain a standard curve of protein load versus band intensity of Zwf1. The amount of Zwf1 in the coniferyl aldehyde treated cultures and the control was quantified using the Image Lab software as previously described (Taylor and Posch, 2014, BioMed Research International. 2014, 361590). This was calculated as the ratio of the Zwf1 band intensity to the intensity of bands in the entire lane signal using the TGX Stain-Free Fast Cast (total proteins). […]

[6] = test system: wild-type cells expressing PEX3-RFP, SEC13-RFP or CIT1-RFP; assay: co-localization of ROS signal with organelle markers; format: cell-based, S. cerevisiae
Text: as §1

[7] = test system: Saccharomyces cerevisiae ethanol red; conditions: commercial Saccharomyces cerevisiae ethanol red; Adeboye et al., 2014; cited from earlier work
[8] = test system: tkl1Δ (YKB4796); assay: dot assay on YPD agar plates; format: cell-based, S. cerevisiae; conditions: 1 mM coniferyl aldehyde, 48 hr at 30° C.
Method: as §2

[9] = test system: rpe1Δ (YKB4795); assay: dot assay on YPD agar plates; format: cell-based, S. cerevisiae; conditions: 1 mM coniferyl aldehyde, 48 hr at 30° C.
Method: as §2

[10] = test system: gnd1Δ (YKB4797); assay: dot assay on YPD agar plates; format: cell-based, S. cerevisiae; conditions: 1 mM coniferyl aldehyde, 48 hr at 30° C.
Method: as §2

[11] = 2 hours of treatment with 2 mM coniferyl aldehyde
[12] = 2 mM coniferyl aldehyde, object-based analysis

## COc1cc(C=CC=O)ccc1O [coniferyl aldehyde, 4-hydroxy-3-methoxycinnamaldehyde]
[1]; [11]
  Mander's overlap co-efficient, Zwf1-GFP with ER marker Sec13-RFP: 0.22±0.07
  Manders' overlap coefficient, Zwf1-GFP with mitochondrial marker CIT1-RFP: 0.34±0.07
[1]; 2 hours, 2 mM coniferyl aldehyde, object-based analysis
  percentage volume of Zwf1 localizing to the mitochondria: 47.10±8.04%
[2]; 2 mM CA for 120 min at 30° C. (ρ=9.69E-5), ferulic acid 10 mM
  Zwf1-GFP fluorescence signal/cell: significant increase
[2]; 2 mM coniferyl aldehyde, 2 hours
  Zwf1-GFP localization: punctuate localization
[3]
  growth of zwf1Δ on agar plates: no growth; also recorded: limited growth
[4]
  localization of Sol2-GFP, Sol3-GFP and Rpe1-GFP signal: concentration of signal into punctate structures
[5]
  increase in Zwf1 protein levels compared to untreated: 1.5 fold
[6]; 2 mM coniferyl aldehyde
  Manders' overlap co-efficient, ROS with ER marker SEC13-RFP: 0.13±0.1
  Manders' overlap co-efficient, ROS with mitochondria marker CIT1-RFP: 0.45±0.04
[6]; [12]
  percentage volume of ROS that localized to the mitochondria: 54.1±17.29%
  total volume of ROS that localized to the ER: 26.5±12.8%
[6]; 2 mM coniferyl aldehyde, peroxisome marker PEX3-RFP
  localization of ROS to peroxisomes: did not localize to the peroxisomes
[6]; after 2 hours of coniferyl aldehyde treatment
  mitochondrial fragmentation: high degree of mitochondrial fragmentation
[7]
  concentration at which the compound kills the yeast: 1 mM
[8]
  growth of tkl1Δ on agar plates: no growth
[9]
  growth of rpe1Δ on agar plates: no growth
[10]
  growth of gnd1Δ on agar plates: no growth
